The target of test [1] is SMARCA4 (Homo sapiens, UniProt P51532). Nature of the test: HiBiT assay for protein degradation, Hela SMARCA4-HiBiT cells (A series). The class given is cell-based. The arrangement: fuse HiBiT to the carboxy terminus of SMARCA2 (Promega CS302365) or SMARCA4 (Promega CS3023225); host or cells: HeLa (CRISPR/Cas9 HiBiT knock-in). The conditions noted are these: for DC50: read-out: SMARC A4 Hela HiBit DC50. The gist of the method:
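SMARCA4 degradation was measured in HeLa cells in which HiBiT had been knocked into the SMARCA4 carboxy terminus via CRISPR/Cas9 (Promega CS3023225). Cells were maintained in DMEM with FBS and penicillin-streptomycin. At the end of treatment, SMARCA4 levels were read by lytic HiBiT luminescence (Nano-Glo®, Promega N3050), and data were analyzed with GraphPad Prism.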
A general note: HiBiT is a short tag that completes a luciferase, so light tracks the accessible tagged protein.

The target in test [2] is SMARCA2 (Homo sapiens, UniProt P51531). Kind of test: HiBiT assay for protein degradation, Hela SMARCA2-HiBiT cells (A series). It counts as cell-based. On the set-up: Hela cells were genetically modified via CRISPR/Cas9 to fuse HiBiT to the carboxy terminus of SMARCA2; host or cells: HeLa (CRISPR/Cas9 HiBiT knock-in). The conditions noted are these: for Dmax: read-out: SMARC A2 Hela HiBit Dmax (%); for DC50: read-out: SMARC A2 Hela HiBit DC50. Summed up: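 SMARCA2 degradation was measured in HeLa cells whose endogenous SMARCA2 carries a carboxy-terminal HiBiT tag introduced by CRISPR/Cas9 (Promega CS302365). Cells were maintained in DMEM with FBS and penicillin-streptomycin. SMARCA2 levels were read at the end of the experiment by Nano-Glo® HiBiT lytic luminescence (Promega N3050) and analyzed in GraphPad Prism.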

Setting [3] is: Hela SMARCA4-HiBiT cells, 24 hours treatment.
[4] abbreviates: Hela SMARCA2-HiBiT cells, 24 hours treatment.
[5] abbreviates: Hela SMARCA4-HiBiT cells, 24 hours treatment, read-out: SMARC A4 Hela HiBit Dmax.
The mark [6] stands for this setting: HeLa, read-out: SMARC A4 Hela HiBit Dmax(%).

Where two headings read alike, the source gives them in different places. Bounds are passed on as bounds.

Chain of SMARCA4 (P51532 whole entry): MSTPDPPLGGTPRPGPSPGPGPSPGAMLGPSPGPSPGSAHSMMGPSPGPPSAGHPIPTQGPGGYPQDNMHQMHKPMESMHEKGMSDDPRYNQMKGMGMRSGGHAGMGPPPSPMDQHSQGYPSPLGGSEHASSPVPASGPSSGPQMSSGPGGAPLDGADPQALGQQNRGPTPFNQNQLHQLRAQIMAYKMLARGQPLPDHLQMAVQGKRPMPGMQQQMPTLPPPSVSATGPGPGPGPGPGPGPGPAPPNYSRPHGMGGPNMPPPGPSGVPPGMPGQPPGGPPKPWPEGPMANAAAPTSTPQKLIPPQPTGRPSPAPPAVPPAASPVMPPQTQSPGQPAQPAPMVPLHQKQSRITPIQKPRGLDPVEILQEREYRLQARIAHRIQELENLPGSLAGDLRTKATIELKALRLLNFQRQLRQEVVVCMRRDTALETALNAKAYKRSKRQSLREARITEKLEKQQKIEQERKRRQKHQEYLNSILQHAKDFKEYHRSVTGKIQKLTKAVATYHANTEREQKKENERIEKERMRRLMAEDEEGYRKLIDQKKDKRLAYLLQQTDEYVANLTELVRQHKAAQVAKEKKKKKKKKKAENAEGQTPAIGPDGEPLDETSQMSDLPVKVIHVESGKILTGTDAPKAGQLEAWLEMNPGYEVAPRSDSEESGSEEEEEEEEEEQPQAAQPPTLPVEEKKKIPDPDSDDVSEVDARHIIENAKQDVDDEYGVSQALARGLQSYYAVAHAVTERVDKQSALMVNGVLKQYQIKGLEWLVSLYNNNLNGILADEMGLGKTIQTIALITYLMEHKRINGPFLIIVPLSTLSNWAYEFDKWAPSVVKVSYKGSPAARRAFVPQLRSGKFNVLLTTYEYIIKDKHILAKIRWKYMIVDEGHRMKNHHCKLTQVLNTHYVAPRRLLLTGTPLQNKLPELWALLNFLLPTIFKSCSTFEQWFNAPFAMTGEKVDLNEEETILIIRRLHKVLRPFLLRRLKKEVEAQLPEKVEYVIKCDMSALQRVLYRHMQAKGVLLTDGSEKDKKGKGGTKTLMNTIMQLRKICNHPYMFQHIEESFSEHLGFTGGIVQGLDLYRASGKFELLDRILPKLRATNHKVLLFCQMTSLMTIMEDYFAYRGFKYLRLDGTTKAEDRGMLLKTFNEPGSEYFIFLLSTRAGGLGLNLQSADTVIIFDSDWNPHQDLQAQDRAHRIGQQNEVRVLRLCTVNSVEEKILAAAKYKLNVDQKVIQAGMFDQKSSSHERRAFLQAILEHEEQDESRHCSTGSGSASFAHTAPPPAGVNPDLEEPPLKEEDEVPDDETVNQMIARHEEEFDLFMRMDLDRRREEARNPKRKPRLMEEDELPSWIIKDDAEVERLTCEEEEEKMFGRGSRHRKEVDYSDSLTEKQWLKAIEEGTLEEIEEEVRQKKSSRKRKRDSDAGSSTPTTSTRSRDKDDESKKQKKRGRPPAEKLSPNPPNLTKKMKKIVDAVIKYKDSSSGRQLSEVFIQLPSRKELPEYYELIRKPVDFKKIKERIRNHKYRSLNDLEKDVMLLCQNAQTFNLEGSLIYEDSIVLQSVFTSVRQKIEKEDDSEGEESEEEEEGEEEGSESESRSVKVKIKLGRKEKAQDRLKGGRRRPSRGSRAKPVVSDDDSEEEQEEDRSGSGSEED
Chain of SMARCA2 (P51531 whole entry): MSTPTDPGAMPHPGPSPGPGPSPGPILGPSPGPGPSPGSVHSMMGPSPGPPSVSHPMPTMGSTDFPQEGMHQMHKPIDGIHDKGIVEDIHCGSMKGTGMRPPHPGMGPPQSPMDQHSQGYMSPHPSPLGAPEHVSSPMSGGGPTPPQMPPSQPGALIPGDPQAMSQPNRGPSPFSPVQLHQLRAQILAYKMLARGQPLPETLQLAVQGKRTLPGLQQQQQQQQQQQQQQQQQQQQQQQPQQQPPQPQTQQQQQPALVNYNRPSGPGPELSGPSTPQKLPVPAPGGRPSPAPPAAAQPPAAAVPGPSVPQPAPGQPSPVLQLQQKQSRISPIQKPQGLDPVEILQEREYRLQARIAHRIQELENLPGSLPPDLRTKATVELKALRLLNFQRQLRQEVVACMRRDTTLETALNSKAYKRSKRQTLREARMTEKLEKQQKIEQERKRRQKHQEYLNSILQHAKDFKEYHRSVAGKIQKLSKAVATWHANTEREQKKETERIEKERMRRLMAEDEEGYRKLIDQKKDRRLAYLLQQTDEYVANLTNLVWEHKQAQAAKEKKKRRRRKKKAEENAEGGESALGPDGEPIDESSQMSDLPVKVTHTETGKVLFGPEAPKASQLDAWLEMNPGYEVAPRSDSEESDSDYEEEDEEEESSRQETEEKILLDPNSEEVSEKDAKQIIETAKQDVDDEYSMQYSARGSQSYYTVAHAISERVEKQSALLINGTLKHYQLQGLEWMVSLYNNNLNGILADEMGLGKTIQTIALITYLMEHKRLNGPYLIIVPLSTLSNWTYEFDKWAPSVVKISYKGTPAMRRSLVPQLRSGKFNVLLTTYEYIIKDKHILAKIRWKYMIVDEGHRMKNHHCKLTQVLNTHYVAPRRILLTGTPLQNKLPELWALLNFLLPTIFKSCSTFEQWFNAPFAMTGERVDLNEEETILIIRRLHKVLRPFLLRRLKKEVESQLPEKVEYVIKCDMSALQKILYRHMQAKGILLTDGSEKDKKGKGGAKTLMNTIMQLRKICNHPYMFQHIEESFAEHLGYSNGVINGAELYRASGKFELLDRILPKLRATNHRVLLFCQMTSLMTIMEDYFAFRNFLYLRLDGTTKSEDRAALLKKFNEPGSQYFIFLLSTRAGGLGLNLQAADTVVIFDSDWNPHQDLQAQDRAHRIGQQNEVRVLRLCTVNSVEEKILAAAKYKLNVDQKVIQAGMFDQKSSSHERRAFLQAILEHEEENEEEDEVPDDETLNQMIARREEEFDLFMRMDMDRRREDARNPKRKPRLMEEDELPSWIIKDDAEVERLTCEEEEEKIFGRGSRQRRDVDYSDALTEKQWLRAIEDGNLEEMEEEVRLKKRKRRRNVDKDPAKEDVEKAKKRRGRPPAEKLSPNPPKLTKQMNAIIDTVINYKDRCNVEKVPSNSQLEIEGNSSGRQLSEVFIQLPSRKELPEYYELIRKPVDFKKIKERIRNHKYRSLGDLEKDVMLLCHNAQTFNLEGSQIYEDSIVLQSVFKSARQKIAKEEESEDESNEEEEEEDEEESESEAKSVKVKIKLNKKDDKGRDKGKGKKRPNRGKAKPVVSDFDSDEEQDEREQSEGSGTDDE

On to `Cc1ncsc1-c1ccc([C@H](C)NC(=O)[C@@H]2C[C@@H](O)CN2C(=O)[C@@H](n2cc([C@H]3CC[C@H](CN4CCC(c5ccc6c(n5)-n5c(nc(=O)c7c(Br)cccc75)C65CCCCC5)CC4)CC3)nn2)C(C)(C)C)cc1` [Compound A50, (2S,4R)-1-((S)-2-(4-((1r,4S)-4-((4-(4′-bromo-5′-oxo-5′H-spiro[cyclohexane-1,7′-pyrido[3′,2′: 4,5]pyrrolo[1,2-a]quinazolin]-10′-yl)piperidin-1-yl)methyl)cyclohexyl)-1H-1,2,3-triazol-1-yl)-3,3-dimethylbutanoyl)-4-hydroxy-N—((S)-1-(4-(4-methylthiazol-5-yl)phenyl)ethyl)pyrrolidine-2-carboxamide], for which the “SMARC A4 Hela HiBit DC50(nM)” value in test [1] (setting [3]) is listed as “No Fit”. In addition, the Dmax – broadly, the largest share of the target that was removed – in test [2] (HeLa) was over 90%. In test [2] (setting [4]), the DC50 – broadly, the concentration giving 50% degradation – is under 100 nM.

On to `Cc1ncsc1-c1ccc([C@H](CN2CCC3(COC3)C2)NC(=O)[C@@H]2C[C@@H](O)CN2C(=O)[C@@H](n2cc([C@H]3CC[C@H](CN4CCC(c5ccc6c(c5)-n5c(nc(=O)c7c(Cl)cccc75)C65CCCCC5)CC4)CC3)nn2)C(C)(C)C)cc1` [Compound A97, (2S,4R)-1-((S)-2-(4-((1r,4S)-4-((4-(4′-chloro-5′-oxo-5′H-spiro[cyclohexane-1,7′-indolo[1,2-a]quinazolin]-10′-yl)piperidin-1-yl)methyl)cyclohexyl)-1H-1,2,3-triazol-1-yl)-3,3-dimethylbutanoyl)-4-hydroxy-N—((R)-1-(4-(4-methylthiazol-5-yl)phenyl)-2-(2-oxa-6-azaspiro[3.4]octan-6-yl)ethyl)pyrrolidine-2-carboxamide], for which the figures for the half-maximal degradation concentration (DC50) in test [1] (setting [3]) and in test [2] (setting [4]) were over 1000 nM and under 10 nM, respectively. For the same molecule, the Dmax was 50 to 69% in test [1] (setting [5]) and over 90% in test [2] (setting [4]).

Regarding `Cc1ncsc1-c1ccc([C@H](C)NC(=O)[C@@H]2C[C@@H](O)CN2C(=O)[C@@H](n2cc([C@H]3CC[C@H](CN4CCC(c5ccc6c(c5)-n5c(nc(=O)c7c(Br)cccc75)C65CCCCC5)CC4)CC3)nn2)C(C)(C)C)cc1` [Compound A62, (2S,4R)-1-((S)-2-(4-((1r,4S)-4-((4-(4′-bromo-5′-oxo-5′H-spiro[cyclohexane-1,7′-indolo[1,2-a]quinazolin]-10′-yl)piperidin-1-yl)methyl)cyclohexyl)-1H-1,2,3-triazol-1-yl)-3,3-dimethylbutanoyl)-4-hydroxy-N—((S)-1-(4-(4-methylthiazol-5-yl)phenyl)ethyl)pyrrolidine-2-carboxamide], the Dmax in test [1] (setting [6]) is 70 to 90%; in test [2] (HeLa), over 90%. In addition, the DC50 in test [1] and in test [2] was under 100 nM each time.

As to `Cc1ncsc1-c1ccc([C@H](C)NC(=O)[C@@H]2C[C@@H](O)CN2C(=O)[C@@H](NC(=O)CN2CCC(c3ccc4c(c3)-n3c(nc(=O)c5c(Br)cccc53)C43CCCCC3)CC2)C(C)(C)C)cc1` [Compound A40, (2S,4R)-1-((S)-2-(2-(4-(4′-bromo-5′-oxo-5′H-spiro[cyclohexane-1,7′-indolo[1,2-a]quinazolin]-10′-yl)piperidin-1-yl)acetamido)-3,3-dimethylbutanoyl)-4-hydroxy-N—((S)-1-(4-(4-methylthiazol-5-yl)phenyl)ethyl)pyrrolidine-2-carboxamide], the Dmax in test [1] (setting [6]) and in test [2] (HeLa) was over 90% in each case. In addition, the DC50 in test [1] and in test [2] was under 100 nM each time.

Consider `COCCOC[C@H](NC(=O)[C@@H]1C[C@@H](O)CN1C(=O)[C@@H](n1cc([C@H]2CC[C@H](CN3CCC(c4ccc5c(c4)-n4c(nc(=O)c6c(Cl)cccc64)C54CCCCC4)CC3)CC2)nn1)C(C)(C)C)c1ccc(-c2scnc2C)cc1` [Compound A86, (2S,4R)-1-((S)-2-(4-((1r,4S)-4-((4-(4′-chloro-5′-oxo-5′H-spiro[cyclohexane-1,7′-indolo[1,2-a]quinazolin]-10′-yl)piperidin-1-yl)methyl)cyclohexyl)-1H-1,2,3-triazol-1-yl)-3,3-dimethylbutanoyl)-4-hydroxy-N-(®-2-(2-methoxyethoxy)-1-(4-(4-methylthiazol-5-yl)phenyl)ethyl)pyrrolidine-2-carboxamide], for which the DC50 in test [1] (setting [3]) was over 1000 nM; in test [2] (setting [4]), under 10 nM. The Dmax was 50 to 69% in test [1] (setting [5]) and over 90% in test [2] (setting [4]).

For the molecule `COC(=O)C1CN(C[C@H](NC(=O)[C@@H]2C[C@@H](O)CN2C(=O)[C@@H](n2cc([C@H]3CC[C@H](CN4CCC(c5ccc6c(c5)-n5c(nc(=O)c7c(Cl)cccc75)C65CCCCC5)CC4)CC3)nn2)C(C)(C)C)c2ccc(-c3scnc3C)cc2)C1` [Compound A154, methyl 1-((R)-2-((2S,4R)-1-((S)-2-(4-((1r,4S)-4-((4-(4′-chloro-5′-oxo-5′H-spiro[cyclohexane-1,7′-indolo[1,2-a]quinazolin]-10′-yl)piperidin-1-yl)methyl)cyclohexyl)-1H-1,2,3-triazol-1-yl)-3,3-dimethylbutanoyl)-4-hydroxypyrrolidine-2-carboxamido)-2-(4-(4-methylthiazol-5-yl)phenyl)ethyl) azetidine-3-carboxylate], the DC50 in test [1] (setting [3]) was over 1000 nM; in test [2] (setting [4]) it was under 10 nM. Further, the Dmax in test [1] (setting [5]) is under 50%; in test [2] (setting [4]) it was over 90%.

For the molecule `COCCOCCOC[C@H](NC(=O)[C@@H]1C[C@@H](O)CN1C(=O)[C@@H](n1cc([C@H]2CC[C@H](CN3CCC(c4ccc5c(c4)-n4c(nc(=O)c6c(Cl)cccc64)C54CCCCC4)CC3)CC2)nn1)C(C)(C)C)c1ccc(-c2scnc2C)cc1` [Compound A87, (2S,4R)-1-((S)-2-(4-((1r,4S)-4-((4-(4′-chloro-5′-oxo-5′H-spiro[cyclohexane-1,7′-indolo[1,2-a]quinazolin]-10′-yl)piperidin-1-yl)methyl)cyclohexyl)-1H-1,2,3-triazol-1-yl)-3,3-dimethylbutanoyl)-4-hydroxy-N-(®-2-(2-(2-methoxyethoxy)ethoxy)-1-(4-(4-methylthiazol-5-yl)phenyl)ethyl)pyrrolidine-2-carboxamide], the DC50 in test [1] (setting [3]) was over 1000 nM; in test [2] (setting [4]), under 10 nM. For the same molecule, the Dmax is 50 to 69% in test [1] (setting [5]) and over 90% in test [2] (setting [4]).

On to `CC(C)(C)[C@H](NC(=O)C1(F)CC1)C(=O)N1C[C@H](O)C[C@H]1C(=O)N[C@@H](CCCCCN1CCC(c2ccc3c(c2)-n2c(nc(=O)c4c(Br)cccc42)C32CCCCC2)CC1)c1ccc(Cl)cc1` [Compound A26, (2S,4R)—N—((S)-6-(4-(4′-bromo-5′-oxo-5′H-spiro[cyclohexane-1,7′-indolo[1,2-a]quinazolin]-10′-yl)piperidin-1-yl)-1-(4-chlorophenyl)hexyl)-1-((S)-2-(1-fluorocyclopropane-1-carboxamido)-3,3-dimethylbutanoyl)-4-hydroxypyrrolidine-2-carboxamide], for which, in test [1] (setting [3]), the “SMARC A4 Hela HiBit Dmax(%)” value is recorded as “D (D (<50% degradation))”. Besides, the DC50 in test [1] and in test [2] was over 1000 nM each time. In addition, the “SMARC A2 Hela HiBit Dmax (%)” value in test [2] (setting [4]) is reported as “D (D (<50% degradation))”.

In the case of `Cc1ncsc1-c1ccc([C@H](CN2CCOCC2)NC(=O)[C@@H]2C[C@@H](O)CN2C(=O)[C@@H](NC(=O)C23CCC(CN4CCC(c5ccc6c(c5)-n5c(nc(=O)c7c(Br)cccc75)C65CCCCC5)CC4)(CC2)CC3)C(C)(C)C)cc1` [Compound A30, (2S,4R)-1-((S)-2-(4-((4-(4′-bromo-5′-oxo-5′H-spiro[cyclohexane-1,7′-indolo[1,2-a]quinazolin]-10′-yl)piperidin-1-yl)methyl)bicyclo[2.2.2]octane-1-carboxamido)-3,3-dimethylbutanoyl)-4-hydroxy-N—((R)-1-(4-(4-methylthiazol-5-yl)phenyl)-2-morpholinoethyl)pyrrolidine-2-carboxamide], the “SMARC A4 Hela HiBit Dmax(%)” value in test [1] (setting [3]) is recorded as “D (D (<50% degradation))”. Besides, the DC50 in test [1] is over 1000 nM; in test [2], under 100 nM. In test [2] (setting [4]), the “SMARC A2 Hela HiBit Dmax (%)” value is “B (B (70-90% degradation))”.

In the case of `Cc1ncsc1-c1ccc([C@H](C)NC(=O)[C@@H]2C[C@@H](O)CN2C(=O)[C@@H](n2cc(CCCCCCN3CCC(c4ccc5c(c4)C4(CCCCC4)c4nc(=O)c6c(Br)cccc6n4-5)CC3)nn2)C(C)(C)C)cc1` [Compound A58, (2S,4R)-1-((S)-2-(4-(6-(4-(4′-bromo-5′-oxo-5′H-spiro[cyclohexane-1,7′-indolo[1,2-a]quinazolin]-9′-yl)piperidin-1-yl)hexyl)-1H-1,2,3-triazol-1-yl)-3,3-dimethylbutanoyl)-4-hydroxy-N—((S)-1-(4-(4-methylthiazol-5-yl)phenyl)ethyl)pyrrolidine-2-carboxamide], the DC50 in test [1] (setting [3]) and in test [2] (setting [4]) was under 100 nM each time. Moreover, the Dmax is over 90% in test [1] (Hela SMARCA4-HiBiT cells, 24 hours treatment, read-out: SMARC A4 Hela HiBit Dmax(%)) and over 90% in test [2] (setting [4]).

The record behind these values is patent US20260092071A1, “COMPOUNDS AND COMPOSITIONS AS SMARCA2/4 DEGRADERS AND USES THEREOF” (REGENTS OF THE UNIVERSITY OF MICHIGAN, priority 2022, published 2026).
